In brackets after ≈: the same amount, converted by molar mass.
Tests used:
[1] = in vivo test of oral powder for constitution in fasted male beagle dogs (plasma Drug 4); details: dog, oral gavage OPC
Method: The composition of Example 16 was used as oral powders for constitution (OPC) for evaluating the performance of the compositions in in vivo tests using male beagle dogs. The OPC was dosed as a suspension in a solution containing 0.5 wt % […] METHOCEL® (from Dow Chemical Co.), and was prepared as follows. First, 7.5 g of METHOCEL® was weighed out and added slowly to approximately 490 mL of water at 90-100° C. to form a METHOCEL® suspension. After all the METHOCELS® was added, 1000 mL of cool/room temperature water was added to the suspension, which was then placed in an ice water bath. When all of the METHOCEL® had dissolved, 2.55 g of polyoxyethylene 20 sorbitan monooleate (TWEEN 80) were added and the mixture stirred until the TWEEN 80 had dissolved, thus forming a stock suspension solution.
To form the OPC, sufficient quantity of the test composition to result in a 90 mgA amount of Drug 4 was weighed and placed into a mortar. (“mgA” refers to mg of active drug.) A 20 mL quantity of the stock suspension solution was added to the mortar and the test composition was mixed with a pestle. […]
Six male beagle dogs were each dosed with the OPC. […] Whole blood samples were taken from the jugular vein and analyzed for the concentration of Drug 4 using the following procedure. […]

[2] = aqueous solubility of the drug; details: aqueous solution
[3] = drugs of prior-art compositions, background section; cited from earlier work

With CCOC(=O)N1c2ccc(C(F)(F)F)cc2[C@@H](N(Cc2cc(C(F)(F)F)cc(C(F)(F)F)c2)C(=O)OC)C[C@H]1CC [Control C7, Torcetrapib] the Cmax ([1]; 90 mgA Drug 4) was < 100 ng/mL and the AUC(0-t) ([1]; 90 mgA Drug 4, read-out: AUC(0–24)) was < 200 ng·h/mL.

In the case of Cc1c(O)cccc1C(=O)N[C@@H](CSc1ccccc1)[C@H](O)CN1C[C@H]2CCCC[C@H]2C[C@H]1C(=O)NC(C)(C)C [Drug 3, N-(1,1-dimethylethyl) decahydro-2-[(2R,3R)-2-hydroxy-3-[(3-hydroxy-2-methylbenzoyl)amino]-4-(phenylthio)butyl]-3-isoquinolinecarboxamide (3s, 4aS, 8aS)-monomethanesulfonate], the solubility [2] is reported as ~6 µg/mL (≈ 10.6 µM).

For COc1ccccc1OCCNCC(O)COc1cccc2[nH]c3ccccc3c12 (stereo not shown) [carvedilol], the “glass transition temperature (Tg)” value [3] is listed as “about 39 °C”.

From US8974823B2, “Solid compositions of low-solubility drugs and poloxamers” (Bend Research, Inc., priority 2003, dated 2015)
